We go through four molecules from patent publication US4340539A, “Derivatives of 6-bromo penicillanic acid” (priority 1980, dated 1982).

Each structure is given as a SMILES string. Like-named read-outs stand apart in the source and are kept apart here.

One series relates to β-lactamase enzyme RTEM. As to conditions: cited from earlier work.
The nature of another series: Hygroscopicity. As to conditions: listed as 2β-chloromethyl-2α-methylpenam-3α-carboxylic acid sulfone. Format: physicochemical.
A short description of series [1]: Storage stability of free acid. Type of series: physicochemical. As to conditions: 23° C., seven days.
Series [2] can be described thus: Blood levels and half-life of BL-P2024 after oral administration of various doses to mice (Table 5). Type of series: in vivo. The settings on record: mouse; for concentration at 0.5 h: 30 min; for concentration at 2 h: 120 min; for concentration at 1 h: 60 min.
Series [3] deals with β-lactamase producing strains of E. coli. Briefly: Therapeutic efficacy of amoxicillin in combinations with BL-P2024 in infected mice (Table 7). Format: in vivo. As to conditions: oral.
Series [4] has as its system β-lactamase producing strains of S. aureus. Described as above. Type of series: in vivo. As to conditions: Staphylococcus aureus, po, read-out: PD50/Treatment.
Another series is described as follows: in vivo. Set-up: species or system mice. The settings on record: mouse, blood, po, 100 mg/kg, Test 2, oral 100 mg/kg, 60 min; read-out: Blood level. The text has this: Compounds prepared in 5% Propylene Glycol & TweenCMC-H2 O.
Values in parentheses are 95% confidence limits.
Assay Organism: E. coli A9675 (pH = 6.6, 0.1% inoculum)

A short description of series [5]: Blood levels after oral administration to mice (Table 4). Format: in vivo. As to conditions: mouse; for concentration at […]: assay organism S. aureus A-9606, read-out: Blood level.
In another series the test system is β-lactamase. The settings on record: cited from earlier work.
Series [6] concerns β-lactamase-producing strains. The settings on record: in vitro and in vivo; cited from earlier work.
The subject of the next series is bacteria. The settings on record: cited from earlier work.
The mark [7] stands for this setting: oral 25 mg/kg, read-out: Blood level.
Setting [8] is: oral 50 mg/kg, read-out: Blood level.
[9] abbreviates: oral 100 mg/kg, read-out: Blood level.
Setting [10] is: oral 200 mg/kg, assay organism S. aureus A9606, read-out: Blood level.

As to `CC1(C)[C@H](C(=O)O)N2C(=O)C(Br)[C@H]2S1(=O)=O` (stereo partly drawn) [(2S,5R,6S)-6β-Bromo-3,3-dimethyl-7-oxo-4-thia-1-azabicyclo[3.2.0]heptane-2-carboxylic acid, S,S-dioxide], in the series with β-lactamase enzyme RTEM, the “inhibition of RTEM” value is “inhibit the action of the β-lactamase enzyme RTEM”.
As to `CC1(CCl)C(C(=O)O)N2C(=O)CC2S1(=O)=O` (stereo not drawn) [BL-P2013 free acid, 2β-chloromethyl-2α-methylpenam-3α-carboxylic acid sulfone], the hygroscopicity entry in the series “Hygroscopicity” is on record as “hygroscopic”. Further, the storage stability result in [1] is “unstable”.
What is called half-life is how long it takes for the measured level to halve. Low readings indicate rapid decline, high ones slow decline. As for `CC(C)(C)C(=O)OCOC(=O)C1N2C(=O)CC2S(=O)(=O)C1(C)CCl` (stereo not drawn) [BL-P2024, Pivaloyloxymethyl 2β-Chloromethyl-2α-methylpenam-3α-carboxylate Sulfone], the half-life is 0.667 h in series [2] (oral 25 mg/kg); 1 h in series [2] (oral 50 mg/kg); 1.42 h in [2] (oral 100 mg/kg); 1 h in [2] (oral 200 mg/kg, assay organism S. aureus A9606); 1.17 h in series [5] (100 mg/kg, oral 100 mg/kg, assay organism E. coli A-9675); 1 h in series [5] (100 mg/kg, oral 100 mg/kg, assay organism S. aureus A-9606). This molecule had a half-life in series [5] (200 mg/kg, oral 200 mg/kg, assay organism S. aureus A-9606) of 1 h. The concentration at […] in [2] (oral 25 mg/kg, 15 min, read-out: Blood level) stood at 5900 ng/mL; in series [2] (oral 25 mg/kg, 90 min, read-out: Blood level) it was 1900 ng/mL; in series [2] (oral 25 mg/kg, 150 min, read-out: Blood level), 700 ng/mL; in series [2] (oral 50 mg/kg, 15 min, read-out: Blood level) it was 7700 ng/mL; in series [2] (oral 50 mg/kg, 90 min, read-out: Blood level), 4700 ng/mL; in series [2] (oral 50 mg/kg, 150 min, read-out: Blood level) it was 2300 ng/mL. Moreover, the concentration at […] stood at 12300 ng/mL in [2] (oral 100 mg/kg, 15 min, read-out: Blood level); 7200 ng/mL in [2] (oral 100 mg/kg, 90 min, read-out: Blood level); 4600 ng/mL in series [2] (oral 100 mg/kg, 150 min, read-out: Blood level); 14700 ng/mL in [2] (oral 200 mg/kg, 15 min, assay organism S. aureus A9606, read-out: Blood level); 8700 ng/mL in series [2] (oral 200 mg/kg, 90 min, assay organism S. aureus A9606, read-out: Blood level); 13100 ng/mL in series [5] (100 mg/kg, oral 100 mg/kg, 15 min). Moreover, the concentration at […] in series [5] (200 mg/kg, oral 200 mg/kg, 150 min) was > 2500 ng/mL. Further, the concentration at 0.5 h in [2] (setting [7]) amounted to 6200 ng/mL; in series [2] (setting [8]) it was 9500 ng/mL; in series [2] (setting [9]), 12200 ng/mL; in series [2] (setting [10]), 14400 ng/mL. In addition, the concentration at 2 h in series [2] (setting [7]) is 1300 ng/mL; in series [2] (setting [9]), 5700 ng/mL; in [2] (setting [10]) it was 5100 ng/mL. Also, the concentration at 1 h was 6300 ng/mL in [2] (setting [8]), 9400 ng/mL in series [2] (setting [9]), 9800 ng/mL in series [2] (setting [10]) and 7800 ng/mL in the series “in vivo”. In addition, the PD50/Treatment in [3] (E. coli A9675, challenge 6 × 10^5, vehicle TCMC) is reported as > 200 mg/kg; in series [3] (E. coli A9675, challenge 7 × 10^5, vehicle 50% DMSO) it was > 25 mg/kg; in series [3] (E. coli A9675, challenge 7 × 10^5, vehicle TCMC) it was > 25 mg/kg; in series [3] (E. coli A9675, challenge 9 × 10^5, vehicle 50% DMSO) it was > 25 mg/kg. Also, the ED50 is > 200 mg/kg in [4] (S. aureus A15091, challenge 5 × 10^8, vehicle TCMC) and 200 mg/kg in series [4] (S. aureus A20379, challenge 5 × 10^8, vehicle TCMC).
Consider `CC1(C)[C@H](C(=O)O)N2C(=O)C[C@H]2S1(=O)=O` [CP-45899], for which the β-lactamase inhibition result with β-lactamase is “irreversibly acting β-lactamase inhibitor”. Moreover, the potentiation of ampicillin result in [6] is “potentiates the in vitro and in vivo activities of ampicillin”. Also, in the series with bacteria, the antibacterial activity entry is listed as “weak antibacterial activity”.
